# Experimental data published in article PMC6396121 (ACS Omega, 2019).
# Legend:
# ^GDPKRAS^WT = ^GDPKRAS^WT (Homo sapiens, UniProt P01116); test: MST binding to GDP-bound KRAS WT; details: GDP state
# ^GDPKRAS^G12D = ^GDPKRAS^G12D (Homo sapiens, UniProt P01116, G12D); test: MST binding to GDP-bound KRAS G12D; details: GDP state
# HRAS^WT = HRAS^WT (Homo sapiens, UniProt P01112); test: MST binding to HRAS WT; details: GDP and GTP-bound forms
# NRAS^WT = NRAS^WT (Homo sapiens, UniProt P01111); test: MST binding to NRAS WT; details: GDP and GTP-bound forms
# Sequence of NRAS^WT (P01111 1-166): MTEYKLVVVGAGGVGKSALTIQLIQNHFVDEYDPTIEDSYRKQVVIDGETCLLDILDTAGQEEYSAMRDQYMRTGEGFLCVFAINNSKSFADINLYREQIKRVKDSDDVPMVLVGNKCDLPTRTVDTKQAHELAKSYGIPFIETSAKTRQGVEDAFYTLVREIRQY
# Rap1b = target: T1, Rap1b (Homo sapiens, UniProt P61224); test: MST binding to control GTPase Rap1b; details: control RAS-related small GTPase
# T1 sequence (P61224 1-166): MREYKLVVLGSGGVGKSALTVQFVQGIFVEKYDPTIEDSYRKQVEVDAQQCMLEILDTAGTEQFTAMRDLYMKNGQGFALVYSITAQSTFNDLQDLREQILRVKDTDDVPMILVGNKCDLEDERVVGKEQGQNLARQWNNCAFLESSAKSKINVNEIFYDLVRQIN
# [1] = test system: BHK cells expressing KRAS^G12D; test: Western analysis of cell signaling in BHK cells expressing KRAS G12D; type: cell-based, hamster
# [2] = test system: BHK cells expressing KRAS^G12V; test: Western analysis of cell signaling in BHK cells expressing KRAS G12V; type: cell-based, hamster
# [3] = test system: BHK cells expressing HRAS^G12V; test: Western analysis of cell signaling in BHK cells expressing HRAS G12V; type: cell-based, hamster
# KRAS–Raf^RBD interaction = KRAS–Raf^RBD interaction (Homo sapiens, UniProt P01116); test: Fluorescence polarization of KRAS binding to GST-Raf RBD; type: biochemical; details: 1 μM compound
# [4] = target: KRAS^G12D–Raf^RBD interaction (Homo sapiens, UniProt P01116, G12D); test: Pull-down of GFP-KRAS G12D by GST-Raf RBD in cell lysates; type: biochemical; details: 1 μM compound
# [5] = target: KRAS^G12D–cRaf interaction (Homo sapiens, UniProt P01116, G12D); test: FLIM-FRET of GFP-KRAS G12D with RFP-cRaf; type: cell-based, hamster; details: 1 μM compound
# [6] = target: KRAS^G12D and RBD interaction (Homo sapiens, UniProt P01116, G12D); test: FLIM-FRET of GFP-KRAS G12D with mCherry-RBD in BHK cells; type: cell-based, hamster; details: 1 μM compound for 2 h; ∼1.93 ns untreated, ∼2.3 ns without RBD
# [7] = target: HRAS^G12V with Raf^RBD interaction (Homo sapiens, UniProt P01112, G12V); test: FLIM-FRET of GFP-HRAS G12V with mCherry-RBD in BHK cells; type: cell-based, hamster; details: 1 μM compound
# [8] = test system: lung cancer cells harboring KRAS^G12D or KRAS^G12V; test: CyQUANT proliferation, lung cancer cells with mutant KRAS; type: cell-based; details: 5 μM compound, 72 h
# [9] = test system: lung cancer cells with wild-type KRAS; test: CyQUANT proliferation, lung cancer cells with wild-type KRAS; type: cell-based; details: 5 μM compound, 72 h
# [10] = test system: oral cancer cells with or without mutant HRAS; test: CyQUANT proliferation, oral cancer cells; type: cell-based; details: 5 μM compound, 72 h
# KRASWT = KRASWT (Homo sapiens, UniProt P01116); test: Intrinsic nucleotide exchange; type: biochemical; details: 1 μM compound
# KRAS and SOS [11] = target: T2, KRAS and SOS (Homo sapiens, UniProt P01116); test: SOS-mediated nucleotide exchange; type: biochemical; details: 1 μM compound
# KRAS = KRAS (Homo sapiens, UniProt P01116); test: Intrinsic nucleotide; type: biochemical; details: 1 μM compound
# KRAS and SOS [12] = target: T2, KRAS and SOS; test: SOS-mediated nucleotide; type: biochemical
structure (smiles),measurement,setting,value
"Cc1nn2c(N3CCN(CCO)CC3)cc(-c3ccccc3)nc2c1-c1ccccc1 [Compound 11, 2-[4-(8-methyl-3,9-diphenyl-2,6,7-triazabicyclo[4.3.0]nona-2,4,7,9-tetraen-5-yl)piperazin-1-yl]ethanol]",binding detected by MST,^GDPKRAS^WT,very weak or no binding
same,binding detected by MST,^GDPKRAS^G12D,very weak or no binding
same,binding detected by MST,HRAS^WT,very weak or no binding
same,binding detected by MST,NRAS^WT,very weak or no binding
same,binding detected by MST,Rap1b,very weak or no binding
same,drop in p-ERK levels,"[1]; 1 μM, 3 h treatment",about 50%
same,reduction of p-ERK levels,"[1]; 5 μM, expanded concentration range",~50%
same,concentrations at which p-ERK levels decreased,[1]; primary western screen,≥ 1 µM
same,effect on p-AKT levels (AKT pathway signaling),[1]; western,inhibits signaling through the AKT pathway but to a lesser extent than the MAPK pathway
same,effect on p-ERK and p-cRaf levels,[2],dose-dependently decreases
same,effect on p-AKT levels,[3]; western,no statistically significant effect
same,effect on p-ERK and p-cRaf levels,"[3]; western, ligand concentration range tested",less effect
same,fold reduction of affinity of KRAS to Raf^RBD,KRAS–Raf^RBD interaction,~13 fold
same,reduction of polarization (RAS–Raf^RBD interaction),KRAS–Raf^RBD interaction; at 2 μM GST–Raf^RBD,> 80%
same,decrease in GFP–KRAS^G12D levels pulled down,[4],> 50%
same,quenching of GFP fluorescence lifetime (KRAS^G12D–cRaf interaction),[5],significantly reduced
same,GFP fluorescence lifetime,[6],~2.02 ns
same,effect on interaction of HRAS^G12V with Raf^RBD,[7],opposite albeit small effect
same,growth relative to DMSO control,[8],30–35%
same,growth relative to DMSO control,[9],60–80%
same,growth relative to DMSO control,[10],60–80%
same,maximum reduction in rate,KRASWT,≤ 5%
same,maximum reduction in rate,KRAS and SOS [11],≤ 5%
same,maximum reduction in rate,KRAS,≤ 5%
same,effect on SOS-mediated nucleotide release rate,KRAS and SOS [12],only modestly decreased
same,maximum reduction in rate,KRAS and SOS [12]; 1 μM compound,≤ 5%
"N#CC(=C(/N)Sc1ccccc1N)/C(C#N)=C(/N)Sc1ccccc1N [Compound U0126, reference compound]",effect on MAPK signaling,[3]; 10 μM,almost completely abolished
